Values after ≈ are worked out from the molar mass of the structure shown.
Legend:
[1] = Cytotoxicity against mouse J774A1 cells after 72 hrs by MTT assay; format: cell-based, J774.A1
Leishmania donovani [2] = experiment: Antileishmanial activity against Leishmania donovani MHOM/IN/Dd8 promastigote carrying firefly luciferase gene assessed as relative luminescence unit at 40 ug/mL after 72 hrs; format: functional; settings: MHOM/IN/Dd8, 72 h
Leishmania donovani [3] = experiment: Antileishmanial activity against Leishmania donovani MHOM/IN/Dd8 promastigote carrying firefly luciferase gene assessed as relative luminescence unit after 72 hrs; format: functional, organism-based
Leishmania donovani [4] = experiment: Antileishmanial activity against Leishmania donovani MHOM/IN/Dd8 amastigote carrying firefly luciferase gene infected in mouse J774A1 cells assessed as relative luminescence unit after 72 hrs; format: functional, organism-based, J774.A1
[5] = Selectivity index, ratio of CC50 for mouse J774A1 cells to IC50 for Leishmania donovani MHOM/IN/Dd8 amastigote; format: functional, J774.A1
Leishmania donovani [6] = experiment: Antileishmanial activity against Leishmania donovani MHOM/IN/Dd8 amastigote infected in hamster assessed as inhibition of amastigote multiplication at 50 mg/kg, ip for 5 days; format: functional; settings: 120 h, route intraperitoneal
Leishmania donovani [7] = experiment: Antileishmanial activity against Leishmania donovani MHOM/IN/Dd8 amastigote infected in hamster assessed as inhibition of amastigote multiplication at 30 mg/kg, po for 5 days; format: functional; settings: MHOM/IN/Dd8, 120 h
Leishmania donovani [8] = experiment: Antileishmanial activity against Leishmania donovani MHOM/IN/Dd8 amastigote infected in hamster assessed as inhibition of amastigote multiplication at 40 mg/kg, ip for 5 days; format: functional; settings: 120 h, route intraperitoneal
[9] = Leishmania donovani, MHOM/IN/Dd8, 72 h, read-out: IC50
[10] = Leishmania donovani, MHOM/IN/Dd8, J774.A1, 72 h, read-out: IC50

| IC50 (Leishmania donovani [3]; [9]) [µg/mL] | IC50 (Leishmania donovani [4]; [10]) [µg/mL] | IC50 (Leishmania donovani [3]) | IC50 (Leishmania donovani [4]; j774.a1) | Structure (SMILES) | CC50 at 72 h [1] [µg/mL] | inhibition at 40 µg/mL (Leishmania donovani [2]) [%] | Ratio CC50/IC50 [5] | inhibition in vivo at 50 mg/kg (Leishmania donovani [6]) [%] | inhibition in vivo at 30 mg/kg (Leishmania donovani [7]) [%] | inhibition in vivo at 40 mg/kg (Leishmania donovani [8]) [%] |
| --- | --- | --- | --- | --- | --- | --- | --- | --- | --- | --- |
| 1.94 (≈ 3.82 µM) | 19.1 (≈ 37.5 µM) | – | – | COC(=O)C1=C(C)N(c2ccc(Cl)cc2)C(C)=C(C(=O)OC)C1[C@@H]1O[C@H]2OC(C)(C)O[C@H]2[C@@H]1OC | 82.4 (≈ 162 µM) | > 80 | 4.32 | – | – | – |
| 0.88 (≈ 1.59 µM) | 3.57 (≈ 6.46 µM) | – | – | COC(=O)C1=C(C)N(c2ccc(Br)cc2)C(C)=C(C(=O)OC)C1[C@@H]1O[C@H]2OC(C)(C)O[C@H]2[C@@H]1OC | 48.5 (≈ 87.8 µM) | > 80 | 13.58 | 43.9 | – | – |
| 1.65 (≈ 2.72 µM) | 8.08 (≈ 13.3 µM) | – | – | CCOC(=O)C1=C(C)N(c2ccc(OC)cc2)C(C)=C(C(=O)OCC)C1[C@@H]1O[C@H]2OC(C)(C)O[C@H]2[C@@H]1OCc1ccccc1 | 59.9 (≈ 98.6 µM) | > 80 | 7.42 | – | – | – |
| – | – | Not Active | Not Active | CCOC(=O)C1=C(C)N(c2ccc(C)cc2)C(C)=C(C(=O)OCC)C1[C@@H]1O[C@H]2OC(C)(C)O[C@H]2[C@@H]1OC | – | > 80 | – | – | – | – |
| 4.17 (≈ 7.39 µM) | 14.3 (≈ 25.4 µM) | – | – | COC(=O)C1=C(C)N(c2ccc(Cl)cc2)C(C)=C(C(=O)OC)C1[C@@H]1O[C@H]2OC(C)(C)O[C@H]2[C@@H]2OC(C)(C)O[C@@H]21 | 15.2 (≈ 27 µM) | > 80 | 1.06 | – | – | – |
| 1.86 (≈ 3.18 µM) | 3.8 (≈ 6.51 µM) | – | – | COC(=O)C1=C(C)N(c2ccc(Cl)cc2)C(C)=C(C(=O)OC)C1[C@@H]1O[C@H]2OC(C)(C)O[C@H]2[C@@H]1OCc1ccccc1 | 4.22 (≈ 7.23 µM) | > 80 | 1.109 | – | – | – |
| 0.86 (≈ 1.74 µM) | 3.85 (≈ 7.79 µM) | – | – | COC(=O)C1=C(C)N(c2ccc(Cl)cc2)C(C)=C(C(=O)OC)C1[C@@H]1O[C@H]2OC(C)(C)O[C@H]2[C@@H]1O | 35.5 (≈ 71.9 µM) | > 80 | 9.21 | 44.9 | – | – |
| 3.72 (≈ 7.04 µM) | 10.1 (≈ 19.2 µM) | – | – | COC(=O)C1=C(C)N(c2ccc(Cl)c(Cl)c2)C(C)=C(C(=O)OC)C1[C@@H]1O[C@H]2OC(C)(C)O[C@H]2[C@@H]1O | 29.9 (≈ 56.7 µM) | > 80 | 2.96 | – | – | – |
| 1.94 (≈ 3.35 µM) | 0.75 (≈ 1.29 µM) | – | – | COC(=O)C1=C(C)N(c2ccc(OC)cc2)C(C)=C(C(=O)OC)C1[C@@H]1O[C@H]2OC(C)(C)O[C@H]2[C@@H]1OCc1ccccc1 | 14.1 (≈ 24.4 µM) | > 80 | 18.93 | 26.8 | – | – |
| 0.22 (≈ 0.414 µM) | 6.18 (≈ 11.6 µM) | – | – | CCOC(=O)C1=C(C)N(c2ccccc2OC)C(C)=C(C(=O)OCC)C1[C@@H]1O[C@H]2OC(C)(C)O[C@H]2[C@@H]1OC | 49.7 (≈ 93.5 µM) | > 80 | 8.04 | 49.7 | – | – |
| – | – | Not Active | Not Active | COC(=O)C1=C(C)N(c2ccc(OC)cc2)C(C)=C(C(=O)OC)C1[C@@H]1O[C@H]2OC(C)(C)O[C@H]2[C@@H]2OC(C)(C)O[C@@H]21 | – | > 80 | – | – | – | – |
| 1.74 (≈ 3.57 µM) | 4.45 (≈ 9.13 µM) | – | – | COC(=O)C1=C(C)N(c2ccc(C)cc2)C(C)=C(C(=O)OC)C1[C@@H]1O[C@H]2OC(C)(C)O[C@H]2[C@@H]1OC | 33.1 (≈ 67.8 µM) | > 80 | 7.43 | 58.8 | – | – |
| 3.67 (≈ 6.47 µM) | – | – | Not Active | COC(=O)C1=C(C)N(c2ccc(F)cc2)C(C)=C(C(=O)OC)C1[C@@H]1O[C@H]2OC(C)(C)O[C@H]2[C@@H]1OCc1ccccc1 | – | > 80 | – | – | – | – |
| 3.62 (≈ 6.42 µM) | 4.89 (≈ 8.68 µM) | – | – | COC(=O)C1=C(C)N(c2ccc(C)cc2)C(C)=C(C(=O)OC)C1[C@@H]1O[C@H]2OC(C)(C)O[C@H]2[C@@H]1OCc1ccccc1 | 7.66 (≈ 13.6 µM) | > 80 | – | – | – | – |
| 12.4 (≈ 24.6 µM) | 4.42 (≈ 8.78 µM) | – | – | COC(=O)C1=C(C)N(c2ccc(OC)cc2)C(C)=C(C(=O)OC)C1[C@@H]1O[C@H]2OC(C)(C)O[C@H]2[C@@H]1OC | 18.6 (≈ 37 µM) | > 80 | 4.21 | – | – | – |
| 0.643 (≈ 1.58 µM) | 12.1 (≈ 29.7 µM) | – | – | CCCCCCCCCCCCCCCCOP(=O)([O-])OCC[N+](C)(C)C [MILTEFOSINE] | 31.3 (≈ 76.8 µM) | – | 2.58 | – | 95 | – |
| – | – | Not Active | Not Active | COC(=O)C1=C(C)N(c2ccc(N)cc2)C(C)=C(C(=O)OC)C1[C@@H]1O[C@H]2OC(C)(C)O[C@H]2[C@@H]2OC(C)(C)O[C@@H]21 | – | > 80 | – | – | – | – |
| 3.23 (≈ 9.49 µM) | 3.59 (≈ 10.5 µM) | – | – | N=C(N)c1ccc(OCCCCCOc2ccc(C(=N)N)cc2)cc1 [PENTAMIDINE] | 3.91 (≈ 11.5 µM) | – | 1.08 | – | – | 92 |
